Data set [1] in a line: Inhibition of recombinant rat SNAP-543-labeled PICK1 binding to Tac-YFP-Dat C24 expressing human HEK293 supported cell membrane sheets and measured by fluorescence polarization competition binding assay. The format is cell membranes.
Data set [2] in a line: Inhibition of macroscopic off-rate of bound PICK1 in Tac-YFP-Dat C24 expressing human HEK293 supported cell membrane sheets. The format is cell membranes.
For a further data set, the system named is Hippocampal neurone. The data set is described as follows: (§1) Binding affinity towards PICK1 in rat hippocampal neurons incubated for 1 hr and measured by DID staining method. The data set is classed as cell-based.
Data set [3] is filed under the species Mus musculus. The data set is described as follows: Binding affinity towards PICK1 in lumbar spinal cord lysates of mouse at 20 uM, IT([…]) and measured by immunoblot analysis. The data set is classed as subcellular.
The species entered for data set [4] is Mus musculus. In words: Disruption of PICK1-GluA2 interaction in lumbar spinal cord lysates of male C57BL/6 mouse at 20 uM, IT and measured by co-immunoprecipitation assay. The data set is classed as subcellular.
The species named for data set [5] is Mus musculus. In words: Disruption of PICK1-GluA2 interaction in lumbar spinal cord lysates of male C57BL/6 mouse assessed as reduction in GluA2 S880 phosphorylation levels at 20 uM, IT and measured by immunoblot analysis. The data set is classed as subcellular.
The species entered for data set [6] is Mus musculus. In words: Disruption of PICK1-GluA2 interaction in lumbar spinal cord lysates of male C57BL/6 mouse assessed as reduction in GluA1 surface levels at 20 uM, IT and measured by immunoblot analysis. The format is subcellular.
Data set [7] is filed under the species Mus musculus. The data set is described as follows: Disruption of PICK1-GluA2 interaction in lumbar spinal cord lysates of male C57BL/6 mouse assessed as reduction in GluA2 surface levels at 20 uM, IT and measured by immunoblot analysis. The format is subcellular.
The species named for data set [8] is Mus musculus. The data set is described as follows: Anti-hypersensitive activity in mouse model of spared nerve injury-induced acute neuropathic pain assessed as increase in paw withdrawal threshold at 20 uM, IT by von Frey test. The format is functional, organism-based.
Data set [9] is filed under the species Mus musculus. In words: Anti-hypersensitive activity in mouse model of spared nerve injury-induced acute neuropathic pain assessed as reduction in GluA1 surface levels in spinal cord at 20 uM, IT by immunoblot analysis. The format is functional, organism-based.
The species named for data set [10] is Mus musculus. In words: Anti-hypersensitive activity in mouse model of spared nerve injury-induced acute neuropathic pain assessed as reduction in GluA2 surface levels in spinal cord at 20 uM, IT by immunoblot analysis. The format is functional, organism-based.
The species entered for data set [11] is Mus musculus. The data set is described as follows: Anti-hypersensitive activity in mouse model of spared nerve injury-induced chronic neuropathic pain assessed as increase in paw withdrawal threshold at 20 uM, IT after 14 days by von Frey test. The format is functional, organism-based. Particulars: time 14.0 day.
For data set [12], the species on record is Mus musculus. In words: Anti-hypersensitive activity in mouse model of spared nerve injury-induced chronic neuropathic pain assessed as increase in paw withdrawal threshold at 20 uM, IT after 28 days by von Frey test. The format is functional, organism-based. The conditions noted are these: time 28.0 day.
The subject of data set [13] is Rattus norvegicus. In words: Attenuation of cocaine reinstatement in 7 day cocaine treated rat assessed as reduction in cocaine seeking behaviour at 0.3 to 3 nmol/g, iv of TAMRA labeled compound treated for 45 mins prior to administration of cocaine injection. The format is functional, organism-based. The conditions noted are these: dose 0.3-3 nmol/g.
Data set [14] concerns Rattus norvegicus. The data set is described as follows: Attenuation of cocaine reinstatement in 7 day cocaine treated rat assessed as effect on inactive lever response at 0.3 to 3 nmol/g, iv of TAMRA labeled compound treated for 45 mins prior to administration of cocaine injection. The data set is classed as functional, organism-based. Particulars: dose 0.3-3 nmol/g.
Data set [15] deals with Rattus norvegicus. The data set is described as follows: Attenuation of cocaine reinstatement in 7 day cocaine treated rat assessed as reduction in sucrose seeking behaviour at 3 nmol/g, iv of TAMRA labeled compound treated for 45 mins prior to administration of cocaine injection. The data set is classed as functional, organism-based.
Data set [16] relates to Rattus norvegicus. The data set is described as follows: Attenuation of cocaine reinstatement in 7 day cocaine treated rat assessed as effect on locomotor activity at 3 nmol/g, iv of TAMRA labeled compound treated for 45 mins prior to administration of cocaine injection. The data set is classed as functional, organism-based.
In data set [17] the test system is Mus musculus. In words: Anti-hypersensitive activity in C57BL/6J mouse model of spared nerve injury-induced acute neuropathic pain assessed as increase in ipsilateral paw mechanical threshold at 10 micromol/kg, sc. Particulars: dose 10.0 µmol/kg. The data set is classed as functional, organism-based.
Data set [18] can be described thus: Stability of compound in PBS. The data set is classed as physicochemical. The conditions noted are these: buffer.
Data set [19] can be described thus: Stability of compound in human plasma. The format is ADME, cell-free.
The species entered for data set [20] is Mus musculus. The data set is described as follows: Antiallodynic activity in C57BL6/N mouse model of CFA-induced inflammatory pain assessed as increase in paw withdrawal threshold at 20 uM, IT by von Frey test. The format is functional, organism-based.
Data set [21] can be described thus: as §1. The format is cell-based. Particulars: hippocampal neurone.
Data set [22] is described as follows: Binding affinity towards PICK1 PDZ domain (unknown origin) measured by fluorescence polarization assay. On the set-up: species or system Homo sapiens.
The subject of data set [23] is Mus musculus. The data set is described as follows: Anti-hypersensitive activity in mouse model of spared nerve injury-induced chronic neuropathic pain assessed as increase in paw withdrawal threshold at 30 mg/kg, ip after 2 hrs by von Frey test. The data set is classed as functional, organism-based.

Each structure is given as a SMILES string. Calls of active or inactive are those of the source.

On to `CC(C)C[C@H](NC(=O)[C@H](Cc1c[nH]c2ccccc12)NC(=O)[C@H](Cc1cnc[nH]1)NC(=O)CCOCCOCCN(CCOCCOCCC(=O)N[C@@H](Cc1cnc[nH]1)C(=O)N[C@@H](Cc1c[nH]c2ccccc12)C(=O)N[C@@H](CC(C)C)C(=O)N[C@@H](CCCCN)C(=O)N[C@H](C(=O)O)C(C)C)C(=O)[C@H](CCCNC(=N)N)NC(=O)[C@H](CCCNC(=N)N)NC(=O)[C@H](CCCNC(=N)N)NC(=O)[C@H](CCCNC(=N)N)NC(=O)[C@H](CCCNC(=N)N)NC(=O)[C@H](CCCNC(=N)N)NC(=O)[C@H](CCCCN)NC(=O)[C@H](CCCCN)NC(=O)[C@H](CCCNC(=N)N)NC(=O)CNC(=O)[C@@H](N)Cc1ccc(O)cc1)C(=O)N[C@@H](CCCCN)C(=O)N[C@H](C(=O)O)C(C)C`, for which the results for the IC50 in data set [1] and in data set [2] (read-out: IC50) were 7 nM and 1170 nM, respectively. The outcome with Hippocampal neurone, in the data set listed under Mus musculus [3], in the data set listed under Mus musculus [4], in the data set filed under Mus musculus [5], in the data set filed under Mus musculus [8] and in the data set filed under Mus musculus [9] was Active. Besides, the outcome in the data set filed under Mus musculus [10], in the data set listed under Mus musculus [11], in the data set filed under Mus musculus [12], with Rattus norvegicus [13], with Mus musculus [17] and in the data set filed under Mus musculus [20] was Active. For the same molecule, the result in the data set listed under Mus musculus [6], in the data set listed under Mus musculus [7], in the data set with Rattus norvegicus [14], in the data set on Rattus norvegicus [15] and in the data set on Rattus norvegicus [16] was inactive. Besides, the Stability entry in data set [18] and in data set [19] was “Stable” each time.
Regarding `CC(C)C[C@H](NC(=O)[C@H](Cc1c[nH]c2ccccc12)NC(=O)[C@H](Cc1cnc[nH]1)NC(=O)[C@H](CCCNC(=N)N)NC(=O)[C@H](CCCNC(=N)N)NC(=O)[C@H](CCCNC(=N)N)NC(=O)[C@H](CCC(N)=O)NC(=O)[C@H](CCCNC(=N)N)NC(=O)[C@H](CCCNC(=N)N)NC(=O)[C@H](CCCCN)NC(=O)[C@H](CCCCN)NC(=O)[C@H](CCCNC(=N)N)NC(=O)CNC(=O)[C@@H](N)Cc1ccc(O)cc1)C(=O)N[C@@H](CCCCN)C(=O)N[C@H](C(=O)O)C(C)C`, the IC50 result in [2] was “Not Active”; in data set [21], “Active”. Moreover, the result in the data set listed under Mus musculus [3], in the data set listed under Mus musculus [4], in the data set filed under Mus musculus [5], in the data set filed under Mus musculus [6], in the data set listed under Mus musculus [7] and in the data set filed under Mus musculus [8] was inactive. The result in the data set filed under Mus musculus [9] and in the data set filed under Mus musculus [10] was inactive. Also, the Stability result in data set [18] is “Unstable”.
As for `CC[C@H](C)[C@H](NC(=O)[C@H](CCCCN)NC(=O)CNC(=O)[C@H](CC(C)C)NC(=O)[C@H](CC(C)C)NC(=O)[C@H](Cc1ccc(O)cc1)NC(=O)CNC(=O)[C@H](C)NC(=O)[C@H](CO)NC(=O)[C@H](CC(N)=O)NC(=O)[C@H](CC(C)C)NC(=O)[C@@H](NC(=O)[C@H](Cc1c[nH]c2ccccc12)NC(=O)CN)[C@@H](C)O)C(=O)N[C@@H](CC(N)=O)C(=O)N[C@@H](CC(C)C)C(=O)N[C@@H](CCCCN)C(=O)N[C@@H](C)C(=O)N[C@@H](CC(C)C)C(=O)N[C@@H](C)C(=O)N[C@@H](C)C(=O)N[C@@H](CC(C)C)C(=O)N[C@@H](C)C(=O)N[C@@H](CCCCN)C(=O)N[C@@H](CCCCN)C(=O)N[C@H](C(=O)N[C@@H](CC(C)C)C(=O)N(CCOCCOCCC(=O)N[C@@H](Cc1cnc[nH]1)C(=O)N[C@@H](Cc1c[nH]c2ccccc12)C(=O)N[C@@H](CC(C)C)C(=O)N[C@@H](CCCCN)C(=O)N[C@H](C(=O)O)C(C)C)CCOCCOCCC(=O)N[C@@H](Cc1cnc[nH]1)C(=O)N[C@@H](Cc1c[nH]c2ccccc12)C(=O)N[C@@H](CC(C)C)C(=O)N[C@@H](CCCCN)C(=O)N[C@H](C(=O)O)C(C)C)[C@@H](C)CC`, the Ki in data set [22] came out at 7.8 nM. In addition, the outcome in the data set with Mus musculus [17] was Active.
`NCC1(CC(=O)O)CCCCC1`: the result with Mus musculus [23] was Active.
As for `CC(C)C[C@H](NC(=O)[C@H](Cc1c[nH]c2ccccc12)NC(=O)[C@@H](N)Cc1cnc[nH]1)C(=O)N[C@@H](CCCCN)C(=O)N[C@H](C(=O)O)C(C)C`, the IC50 result in data set [2] is “Not Active”.

The record behind these values is ChEMBL document CHEMBL5050841, “Inhibitors of pick1 and uses thereof” (2021).
